# In PMC5789824, “A presumed homologue of the regulatory subunits of eIF2B functions as ribose-1,5-bisphosphate isomerase in Pyrococcus horikoshii OT3” (Scientific Reports, 2018):
# Read-outs that look alike come from different tables or passages of the source.
# Experiments:
# [1] = system: ribose-1,5-bisphosphate isomerase (R15Pi); design: method as in PMID 23065974; conditions: result in words; cited from earlier work
# [2] = target: T1, PH0208 protein (PH0208-WT, PH0208-C135S, PH0208-D204N) (Pyrococcus horikoshii, UniProt O57947, M1V); assay: Co-crystallization or soaking with ribonucleotides (crystal structure complexes); format: binding, Pyrococcus horikoshii OT3; conditions: for binding of ribonucleotide seen in crystal structure (electron density): co-crystallization or soaking of PH0208-WT, -C135S, -D204N; for preferred molecule at the 'AMP binding site': crystallized in presence of both AMP (1.5 mM) and GMP (4.5 mM)
# T1 construct: an N-terminal α-helical domain (residues 1–122) and a C-terminal α-β-α sandwich domain (residues 123–324); made in house; host or cells: Escherichia coli Rosetta (DE3)
# T1 sequence (O57947 whole entry M1V, the tested form may be a part): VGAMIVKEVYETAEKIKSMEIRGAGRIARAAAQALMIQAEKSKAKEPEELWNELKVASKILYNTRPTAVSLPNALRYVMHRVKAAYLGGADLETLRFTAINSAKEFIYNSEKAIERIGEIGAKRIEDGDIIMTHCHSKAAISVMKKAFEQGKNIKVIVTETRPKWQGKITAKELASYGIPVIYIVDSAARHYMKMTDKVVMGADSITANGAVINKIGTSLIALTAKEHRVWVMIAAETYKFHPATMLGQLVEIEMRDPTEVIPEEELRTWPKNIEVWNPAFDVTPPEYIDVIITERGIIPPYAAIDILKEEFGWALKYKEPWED
# Protocol: To identify the binding site of ribonucleotides, either co-crystallization or soaking of PH0208-WT, PH0208-C135S and PH0208-D204N proteins with AMP, GMP, CMP and TMP was performed. […] The binding site of AMP lies at the interface of three monomers (chain A, B and D) of the hexameric protein (Fig. 4a). The side chains of Arg124 and Asp290 of chain A undergoes a shift towards AMP to form hydrogen bond with the O2′ and O3′ oxygen atoms of the ribose sugar (Fig. 4b). Another two residues of chain A, Arg229 and Trp231 are involved in interacting with the phosphate groups of the AMP molecule. The side chain atoms of Asn209 and the backbone atoms of Val251 of chain B forms hydrogen bond with the oxygen (O2′ and O3′) atoms of the ribose sugar and the nitrogen (N1 and N6) atom of the adenosine base ring, respectively. Along with chain A and chain B, AMP also binds to a third protomer of the hexameric protein through interactions involving the side chain atoms of Arg190 and Lys194 of chain D (Fig. 4c). Thus, one AMP molecule positions itself to hold three protomers of the hexamer. All the amino acid residues of PH0208 protein forming hydrogen bond with AMP are found to be absolutely conserved in R15Pi enzymes. […] In case of both the mutants, PH0208-C135S and PH0208-D204N, AMP occupies a similar position to that of PH0208-WT protein with the major interactions arising from the three subunits of the hexamer. Similar to PH0208-WT, the adenosine base ring interacts with Val251 of chain B, the oxygen atoms of ribose sugar interacts with Arg124 & Asp290 of chain A and Asn209 of chain B while the phosphate group forms hydrogen bond with Arg229 & Trp231 of chain A and Arg190 & Lys194 of chain D of the mutant proteins (Fig. 4d–f).
# To obtain crystals of PH0208-WT, an initial screening was performed by mixing 2 μl of protein and 2 μl of crystallization condition available in Crystal Screen, Crystal Screen 2 and PEG/Ion kits from Hampton research at 277 K and 293 K by the microbatch-under-oil technique. Further refinement of one of the conditions containing 2.0 M NaCl and 10% (w/v) PEG 6000 using hanging-drop vapor-diffusion technique in 24-well plate was performed to obtain better crystals. However, crystals of the apo form of PH0208-WT protein diffracted very poorly. To obtain diffraction quality crystals, the substrate (R15P) was added to the crystallization drop which was then equilibrated against 500 μl of 0.7 M NaCl and 3% PEG 6000. Yet, the crystals formed diffracted to a resolution of ~7 Å, only. […] For co-crystallization of PH0208-WT, PH0208-C135S and PH0208-D204N with different ligands, the final protein concentration was kept at 9.5, 9.0 and 7.0 mg ml^−1, respectively in 20 mM Tris-HCl pH 8.0 and 150 mM KCl. The final concentration of R15P in the crystallization drops were 8.33–9 mM while that of AMP, GMP, CMP and TMP were 1.66, 4.5 & 9, 1.66 and 9 mM, respectively. In case of ligand soaking, the concentration of AMP was kept at 5 mM. For obtaining the crystals of ligand bound PH0208-C135S and PH0208-D204N complexes, the reservoir buffer was further supplemented with 0.1–0.3% of low melting (LM) agarose. All the crystals were obtained in hanging-drop vapor-diffusion method at 20 °C within a period of 2–7 days.
# [3] = target: T2, PH0208-C135S mutant protein (Pyrococcus horikoshii, UniProt O57947, C135S); assay: biochemical; format: binding, Pyrococcus horikoshii OT3
# T2 construct: an N-terminal α-helical domain (residues 1–122) and a C-terminal α-β-α sandwich domain (residues 123–324); made in house; host or cells: Escherichia coli Rosetta (DE3)
# T2 sequence (O57947 whole entry C135S, the tested form may be a part): as the sequence (O57947 whole entry M1V, the tested form may be a part) above, with V1M, C135S counted along it
# Protocol: (§1) To determine the binding affinity of the substrate (R15P) and the product (RuBP) to the protein PH0208, isothermal titration calorimetry (ITC) experiments were performed. Since binding of the substrate to the PH0208-WT protein triggers a conformational change along with the formation of the product, the heat change measured during the ITC experiment would reflect the sum of heat generated and absorbed during each event. As a result, the binding affinity (Kd) of PH0208 and R15P/RuBP obtained would be delusional. Therefore, binding affinity was studied using the mutant proteins, PH0208-C135S and PH0208-D204N in which case the heat change would be solely due to ligand binding.
# (§2) ITC experiments of mutant proteins (PH0208-C135S, PH0208-C135A and PH0208-D204N) with the substrate (R15P) and the product (RuBP) molecules were measured at 25 °C using MicroCal iTC200. Before ITC experiments, the proteins were dialyzed extensively in buffer (20 mM Tris-HCl pH 8.0 and 150 mM KCl) and the equilibrated buffer was subsequently used to prepare ligand solutions to minimize the heat of dilution effects. Each titration consisted of a preliminary injection of 0.4 μl of 7.5–8.0 mM of R15P and RuBP followed by 24 injections of 1.2 μl (spacing 120 s) into the sample cell filled with protein at a final concentration of 75–80 μM. During titration, the syringe rotated at a speed of 450 rpm to facilitate adequate mixing of the reactants. Data were analyzed using MicroCal ORIGIN software and baselines were subtracted from data to obtain accurate heat exchanges.
# [4] = target: T3, PH0208-D204N mutant protein (Pyrococcus horikoshii, UniProt O57947, D204N); assay: biochemical; format: binding, Pyrococcus horikoshii OT3
# T3 construct: an N-terminal α-helical domain (residues 1–122) and a C-terminal α-β-α sandwich domain (residues 123–324); made in house; host or cells: Escherichia coli Rosetta (DE3)
# T3 sequence (O57947 whole entry D204N, the tested form may be a part): as the sequence (O57947 whole entry M1V, the tested form may be a part) above, with V1M, D204N counted along it
# Protocol: as §1, §2
# [5] = target: T4, PH0208-C135A mutant protein (Pyrococcus horikoshii, UniProt O57947, C135A); assay: biochemical; format: binding, Pyrococcus horikoshii OT3
# T4 construct: an N-terminal α-helical domain (residues 1–122) and a C-terminal α-β-α sandwich domain (residues 123–324); made in house; host or cells: Escherichia coli Rosetta (DE3)
# T4 sequence (O57947 whole entry C135A, the tested form may be a part): as the sequence (O57947 whole entry M1V, the tested form may be a part) above, with V1M, C135A counted along it
# Protocol: Henceforth, Cys135 was mutated to alanine (PH0208-C135A) to understand its role in ligand (R15P/RuBP) binding.
# as §2
structure (smiles),measurement,setting,value
"Nc1ccn([C@@H]2O[C@H](COP(=O)(O)O)[C@@H](O)[C@H]2O)c(=O)n1 [CMP, cytosine 5′-monophosphate]",effect on enzymatic activity / catalytic efficiency of R15Pi,[1],neither cytosine 5′-monophosphate (CMP) nor thymidine 5′-monophospahte (TMP) possesses the ability to increase the enzymatic activity
same,binding of ribonucleotide seen in crystal structure (electron density),[2],no electron density
"Nc1ncnc2c1ncn2[C@@H]1O[C@H](CSCC[C@H](N)C(=O)O)[C@@H](O)[C@H]1O [SAH, S-adenosyl homocysteine]",effect on enzymatic activity / catalytic efficiency of R15Pi,[1],inability
"Nc1ncnc2c1ncn2[C@@H]1O[C@H](COP(=O)(O)OP(=O)(O)OP(=O)(O)O)[C@@H](O)[C@H]1O [ATP, adenosine 5ʹ-triphosphate]",effect on enzymatic activity / catalytic efficiency of R15Pi,[1],inability
"O=P(O)(O)OC[C@H]1OC(OP(=O)(O)O)[C@H](O)[C@@H]1O (stereo partly shown) [R15P, ribose-1,5-bisphosphate]",Ka,"[3]; ITC, 25 °C",72000 ± 7130 M⁻¹
same,T∆S,"[3]; ITC, 25 °C",7.03 kcal/mol
same,∆G,"[3]; ITC, 25 °C",-6.6 kcal/mol
same,∆H,"[3]; ITC, 25 °C",0.403 ± 0.013 kcal/mol
same,N,"[3]; ITC, 25 °C, single-site model, '(fixed)' = fixed in fit",1.17 ± 0.03
same,Kd,"[3]; ITC, 25 °C, read-out: Kd",13.8 µM
same,Ka,"[4]; ITC, 25 °C",99100 ± 2630 M⁻¹
same,T∆S,"[4]; ITC, 25 °C",7.77 kcal/mol
same,∆G,"[4]; ITC, 25 °C",-6.8 kcal/mol
same,∆H,"[4]; ITC, 25 °C",0.981 ± 0.049 kcal/mol
same,Kd,"[4]; ITC, 25 °C, read-out: Kd",10 µM
same,interaction with PH0208-C135A (ITC),"[5]; ITC, 25 °C, result in words",did not show any interaction
"O=C(COP(=O)(O)O)[C@H](O)[C@H](O)COP(=O)(O)O [RuBP, ribulose-1,5-bisphosphate]",Kd,[3],7.5 µM
same,Ka,"[3]; ITC, 25 °C",133000 ± 72100 M⁻¹
same,T∆S,"[3]; ITC, 25 °C",2.24 kcal/mol
same,∆G,"[3]; ITC, 25 °C",-6.98 kcal/mol
same,∆H,"[3]; ITC, 25 °C",-4.74 ± 0.39 kcal/mol
same,Kd,[4],7.2 µM
same,Ka,"[4]; ITC, 25 °C",139000 ± 12000 M⁻¹
same,T∆S,"[4]; ITC, 25 °C",4.05 kcal/mol
same,∆G,"[4]; ITC, 25 °C",-7.0 kcal/mol
same,∆H,"[4]; ITC, 25 °C",-2.95 ± 0.06 kcal/mol
same,Kd,[5],309 µM
same,Ka,"[5]; ITC, 25 °C",3.23 × 10^3 ± 299 M^−1
same,T∆S,"[5]; ITC, 25 °C",-4.14 kcal/mol
same,∆G,"[5]; ITC, 25 °C",-4.8 kcal/mol
same,∆H,"[5]; ITC, 25 °C",-8.94 ± 0.40 kcal/mol
"C[S+](CC[C@H](N)C(=O)[O-])C[C@H]1O[C@@H](n2cnc3c(N)ncnc32)[C@H](O)[C@@H]1O (stereo partly shown) [SAM, S-adenosyl methionine]",effect on enzymatic activity / catalytic efficiency of R15Pi,[1],inability
"Cc1cn([C@H]2C[C@H](O)[C@@H](COP(=O)(O)O)O2)c(=O)[nH]c1=O [TMP, thymidine 5′-monophospahte]",effect on enzymatic activity / catalytic efficiency of R15Pi,[1],neither cytosine 5′-monophosphate (CMP) nor thymidine 5′-monophospahte (TMP) possesses the ability to increase the enzymatic activity
same,binding of ribonucleotide seen in crystal structure (electron density),[2],no electron density
"Nc1nc2c(ncn2[C@@H]2O[C@H](COP(=O)(O)O)[C@@H](O)[C@H]2O)c(=O)[nH]1 [GMP, guanosine 5′-monophosphate]",effect on enzymatic activity / catalytic efficiency of R15Pi,[1],"elevates the activity of R15Pi, though to a lesser extent as compared to AMP"
same,binding of ribonucleotide seen in crystal structure (electron density),[2],bound to the proteins
same,preferred molecule at the 'AMP binding site',[2],GMP binds to the ‘GMP binding loop’
"Nc1ncnc2c1ncn2[C@@H]1O[C@H](COP(=O)(O)O)[C@@H](O)[C@H]1O [AMP, adenosine 5′-monophosphate]",effect on enzymatic activity / catalytic efficiency of R15Pi,[1],activator of R15Pi
same,binding of ribonucleotide seen in crystal structure (electron density),[2],bound to the proteins
same,preferred molecule at the 'AMP binding site',[2],AMP outcompete GMP and binds to the ‘AMP binding site’
